From publication PMC11337205, “Unraveling Interspecies Differences in the Phase I Hepatic Metabolism of Alternariol and Alternariol Monomethyl Ether: Closing Data Gaps for a Comprehensive Risk Assessment” (Chemical Research in Toxicology, 2024)
Like-named read-outs stand apart in the source and are kept apart here.

Key:
[1] = oral exposure, radiolabeled AOH, male NMRI mice; cited from earlier work
[2] = Phase I metabolism kinetics (parent toxin loss) in NADPH-fortified human liver microsomes, LC-MS/MS; type: in vitro ADME; details: for microsomal CLint: human, pH 7.4, human LMs, read-out: CLint (intrinsic clearance)
Description: Pooled human LMs and pooled Sprague–Dawley rat hepatic microsomes, both originating from male donors, were purchased from Sigma-Aldrich (St. Louis, MO, USA) and Gibco, Thermo Fisher Scientific (Waltham, MA, USA), respectively. Porcine LMs were prepared according to an in-house-developed protocol based on the publication of Knights et al.[32] The liver of an approximately four-month-old female “Large White” (or “German Edelschwein”) pig was obtained from a local slaughterhouse. After slaughtering, the liver was placed on ice for about an hour, kept in ice-cold 50 mM tris(hydroxymethyl)aminomethane hydrochloride (Tris–HCl) (pH 7.4) for an additional hour while being transported, and processed immediately.
The kinetics of the phase I metabolism of AOH and AME was investigated by incubating human, rat (both 1 mg protein/mL), and porcine LMs (2 mg protein/mL) with 1, 10, 20, 50, and 100 μM AOH or 1, 10, 20, and 50 μM AME based on the protocol by Al-Subeihi et al.[34] The incubation solution contained a final concentration of 3 mM NADPH and 1 mM ascorbic acid in 200 mM Tris–HCl (pH 7.4). After preincubation (37 °C, 1 min, mixing at 250–300 rpm), the toxin stock was added in a 1:100 dilution, resulting in a total DMSO content of 1% and the desired toxin concentration. DMSO was selected for this assay because it is the least inhibitory of the solvents studied by Busby et al. on CYP1A1,[35] the primary enzyme involved in the hydroxylation of AOH and AME.[26] The well-established solubility of the test compounds in DMSO and DMSO-containing aqueous buffers facilitated laboratory work and ensured consistency with existing literature, thereby improving the comparability of results across studies, including those of Pfeiffer and colleagues.[25] In a preliminary investigation, incubation times of 5 and 10 min were chosen because they fall within the linear range of the transformation rate–time relationship, thereby ensuring initial rate conditions (Figure S1). When the selected incubation time (0–10 min) passed, one part of the sample was pipetted into two parts of ice-cold extraction solvent (acetonitrile–methanol, 1:1, v/v) for reaction termination. Subsequently, the samples were placed into the freezer (−20 °C) for at least an hour, centrifuged (15 min, 18,000g, 4 °C), and further diluted in methanol–water (3:7, v/v) prior to LC–MS measurements. In the solvent control, the toxin was substituted with DMSO in the incubation solution. Control incubations were performed without the cofactor NADPH or with heat-inactivated microsomes (98 °C, 10 min, mixing at 300 rpm).
The quantification of selected analytes using external calibration (MS parameters listed in Supporting Information Table S1) was conducted on a high-performance liquid chromatographic system (Dionex UltiMate 3000 UHPLC, Dionex Softron GmbH, Germering, Germany) coupled to a triple quadrupole mass spectrometer (TSQ Vantage, Thermo Fisher Scientific, Waltham, MA, USA), equipped with a heated electrospray ionization (ESI) interface. The applied analytical method is based on Puntscher et al.[28],[36] with slight modifications, which are specified below.
In brief, the Ascentis Express C18 column (10 cm × 2.1 mm, 2.7 μm, Supelco, Munich, DE), equipped with the Phenomenex SecurityGuard (C18 Cartridges, 4 × 2.0 mm ID, Phenomenex Ltd. Deutschland, Aschaffenburg, Germany), served as the stationary phase. Eluent A was aqueous ammonium acetate (5 mM, pH adjusted to 8.6 with a 25% ammonia solution), and eluent B was methanol. During the first minute, the column was kept at 30% eluent B. Subsequently, the eluent B content was linearly raised to 100% within 6 min. Thereafter, the column was washed with 100% eluent B for 1.5 min. Lastly, the column was re-equilibrated at the initial conditions, reaching an overall run time of 10 min. The autosampler compartment was kept at 10 °C, while the column oven temperature was maintained at 30 °C. […]

## Cc1cc(O)cc2oc(=O)c3c(O)cc(O)cc3c12 [AOH, alternariol]
[1]
  bioavailability: less than 10%
[2]; human LMs, 1 µM toxin, 5 min
  Concentration decrease: 28%
[2]; human LMs, 1 µM toxin, 10 min
  Concentration decrease: 53%
[2]; human LMs, 10 µM toxin, 5 min
  Concentration decrease: 11%
[2]; human LMs, 10 µM toxin, 10 min
  Concentration decrease: 17%
[2]; human LMs, 20 µM toxin, 5 min
  Concentration decrease: 10%
[2]; human LMs, 20 µM toxin, 10 min
  Concentration decrease: 20%
[2]; human LMs, 50 µM toxin, 5 min
  Concentration decrease: 12%
[2]; human LMs, 50 µM toxin, 10 min
  Concentration decrease: 22%
[2]; human LMs, 100 µM toxin, 5 min
  Concentration decrease: 20%
[2]; human LMs, 100 µM toxin, 10 min
  Concentration decrease: 39%
[2]; human LMs, within 10 min, Michaelis–Menten model
  Vmax (maximum transformation rate): 3370 pmol/mg/min
[2]; male, liver microsomes, Michaelis–Menten model, ratio Vmax/Km
  microsomal CLint: 25.8 µL/min/mg
[2]; male, liver microsomes, linear regression, lower concentration range
  microsomal CLint: 19.9 µL/min/mg
[2]; male, liver microsomes, pH 7.4, human LMs 1 mg protein/mL, NADPH, within 10 min, Michaelis–Menten model, read-out: Km (Michaelis constant)
  Km: 131 µM
